From the supplement of paper PMC10307832

What was measured:
Assay in all cases: relative viability (nuclei count vs DMSO), 5 days (fraction); higher = more cells survive
BAM7 + Linsitinib = compound: CCOC1=CC=CC=C1N=NC2=C(NN(C2=O)C3=NC(=CS3)C4=CC=CC=C4)C [BAM7] + C[C@]1(O)C[C@@H](c2nc(-c3ccc4ccc(-c5ccccc5)nc4c3)c3c(N)nccn32)C1 [Linsitinib] (partner 1 µM)
Procedure, shortened: (§1)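 Five library-drug doses in √10 steps were combined with a fixed anchor-drug dose, or a single drug was given alone, by pin tool to lung cancer cell lines in 1536-well plates the day after seeding. Nuclei were stained and counted after 5 days. Relative viability is the nuclei count in treated wells over that in vehicle wells, taken as the median of duplicate plates.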

BAM7 + Navitoclax = compound: CCOC1=CC=CC=C1N=NC2=C(NN(C2=O)C3=NC(=CS3)C4=CC=CC=C4)C [BAM7] + CC1(C)CCC(c2ccc(Cl)cc2)=C(CN2CCN(c3ccc(C(=O)NS(=O)(=O)c4ccc(N[C@H](CCN5CCOCC5)CSc5ccccc5)c(S(=O)(=O)C(F)(F)F)c4)cc3)CC2)C1 [Navitoclax] (partner 0.5 µM)
Procedure, shortened: as §1

BAM7 + Bortezomib = compound: CCOC1=CC=CC=C1N=NC2=C(NN(C2=O)C3=NC(=CS3)C4=CC=CC=C4)C [BAM7] + CC(C)C[C@H](NC(=O)[C@H](Cc1ccccc1)NC(=O)c1cnccn1)B(O)O [Bortezomib] (partner 0.002 µM)
Procedure, shortened: as §1

[1] = compound: CCn1c(-c2nonc2N)nc2c(C#CC(C)(C)O)ncc(OC[C@H]3CCCNC3)c21 + Cc1nc(NC(=O)N2CCC[C@H]2C(N)=O)sc1-c1ccnc(C(C)(C)C(F)(F)F)c1 [Alpelisib] (partner 2 µM)
Procedure, shortened: as §1

Cell Line UMC-11 has a relative viability (BAM7 + Linsitinib; first compound 0.5 µM) of 1.12, a relative viability (BAM7 + Linsitinib; first compound 5 µM) of 1.05 and a relative viability (BAM7 + Linsitinib; first compound 15.81 µM) of 1.07. It also gave a relative viability (BAM7 + Linsitinib; first compound 50 µM) of 1.09, a relative viability (BAM7 + Navitoclax; first compound 0.5 µM) of 0.306 and a relative viability (BAM7 + Navitoclax; first compound 5 µM) of 0.319. For the same cell line, the relative viability (BAM7 + Navitoclax; first compound 15.81 µM) was 0.391, the relative viability (BAM7 + Navitoclax; first compound 50 µM) was 0.372 and the relative viability (BAM7 + Bortezomib; first compound 0.5 µM) was 0.78. For the same cell line, the relative viability (BAM7 + Bortezomib; first compound 5 µM) was 0.89, the relative viability (BAM7 + Bortezomib; first compound 15.81 µM) was 0.67 and the relative viability (BAM7 + Bortezomib; first compound 50 µM) was 0.905. It also gave a relative viability ([1]; first compound 0.01 µM) of 1.04, a relative viability ([1]; first compound 0.03162 µM) of 0.974 and a relative viability ([1]; first compound 0.1 µM) of 0.969. It also gave a relative viability ([1]; first compound 0.3162 µM) of 0.96 and a relative viability ([1]; first compound 1 µM) of 0.976.
